The source of these data is paper PMC6934184, “Selective DNA-PKcs inhibition extends the therapeutic index of localized radiotherapy and chemotherapy” (The Journal of Clinical Investigation, 2019).

This test addresses T1, CSNK2A1 (CK2 alpha 1) (Homo sapiens, UniProt P68400).
T1 construct: purchased Thermo Fisher Scientific (Life Technologies) SelectScreen
Nature of the test: SelectScreen Z'LYTE. The test is classed as biochemical. The method, boiled down:
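SelectScreen broad panel; activity (Z'LYTE, Adapta) plus binding formats. ATP: Km app for CSF1R Z'LYTE; 10 for CAMK1 Adapta. Readout = % per kinase.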

T1 sequence (P68400 whole entry): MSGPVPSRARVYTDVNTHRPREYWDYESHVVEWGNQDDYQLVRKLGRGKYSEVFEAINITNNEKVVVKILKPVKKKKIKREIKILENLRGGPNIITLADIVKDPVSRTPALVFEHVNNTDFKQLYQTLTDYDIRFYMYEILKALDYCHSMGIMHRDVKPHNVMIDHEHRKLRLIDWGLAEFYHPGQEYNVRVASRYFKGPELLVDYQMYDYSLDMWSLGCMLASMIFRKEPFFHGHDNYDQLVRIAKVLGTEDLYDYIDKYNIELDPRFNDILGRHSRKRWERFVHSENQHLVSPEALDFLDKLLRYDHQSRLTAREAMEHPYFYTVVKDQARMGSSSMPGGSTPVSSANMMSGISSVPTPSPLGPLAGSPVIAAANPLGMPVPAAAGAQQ

The term inhibition denotes the drop in the measured response relative to a control, in per cent. A higher inhibition goes with a strong effect. Take `CN(C(=O)CN1CCOCC1)c1ccc2sc3c(-c4cccc5c(=O)cc(N6CC7CCC(C6)O7)oc45)cccc3c2c1` [NU5455]: the inhibition at 1 µM was 7.1%.
